Test results taken from the supplement of paper PMC10307832.

Key:
Experiment in all cases: relative viability (nuclei count vs DMSO), 5 days (fraction); higher = more cells survive
[1] = tested on: HOP-62
Procedure, shortened: (§1)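 Lung cancer cell lines were seeded in 1536-well plates and dosed by pin tool the next day, with either a single drug or a fixed anchor-drug dose combined with five library-drug doses (not always all listed) spaced in √10 steps. Five days later, one step fixed the cells and stained their nuclei (final 0.05% Triton X-100, 1% formaldehyde, 1 ug/ml Hoechst), and nuclei were counted on 4× images. Relative viability is the nuclei count in treated wells divided by the count in vehicle wells, and each value is the median of duplicate plates.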

[2] = tested on: NCI-H647
Procedure, shortened: as §1

[3] = tested on: ABC-1
Procedure, shortened: as §1

[4] = tested on: HCC-827
Procedure, shortened: as §1

[5] = tested on: NCI-H596
Procedure, shortened: as §1

[6] = tested on: NCI-H2170
Procedure, shortened: as §1

[7] = tested on: NCI-H1563
Procedure, shortened: as §1

[8] = tested on: BEN
Procedure, shortened: as §1

[9] = tested on: NCI-H358
Procedure, shortened: as §1

[10] = tested on: NCI-H322M
Procedure, shortened: as §1

[11] = tested on: NCI-H1666
Procedure, shortened: as §1

[12] = tested on: NCI-H838
Procedure, shortened: as §1

[13] = tested on: NCI-H520
Procedure, shortened: as §1

[14] = tested on: PC-14
Procedure, shortened: as §1

[15] = tested on: LU99A
Procedure, shortened: as §1

[16] = tested on: UMC-11
Procedure, shortened: as §1

[17] = tested on: NCI-H1792
Procedure, shortened: as §1

[18] = tested on: EPLC-272H
Procedure, shortened: as §1

[19] = tested on: NCI-H727
Procedure, shortened: as §1

[20] = tested on: NCI-H23
Procedure, shortened: as §1

[21] = tested on: NCI-H1355
Procedure, shortened: as §1

[22] = tested on: NCI-H2405
Procedure, shortened: as §1

[23] = tested on: NCI-H1975
Procedure, shortened: as §1

[24] = tested on: NCI-H3122
Procedure, shortened: as §1

SMILES: CCCCCCCCCCCC1=C(O)C(=O)C=C(O)C1=O [Embelin] + CS(=O)(=O)N1CCN(Cc2cc3nc(-c4cccc5[nH]ncc45)nc(N4CCOCC4)c3s2)CC1 [Pictilisib] (partner 1 µM)
- relative viability ([1]; first compound 0.08 µM): 0.883
- relative viability ([1]; first compound 0.8 µM): 0.964
- relative viability ([1]; first compound 2.53 µM): 0.433
- relative viability ([1]; first compound 8 µM): 0.503
- relative viability ([2]; first compound 0.08 µM): 0.423
- relative viability ([2]; first compound 0.8 µM): 0.59
- relative viability ([2]; first compound 2.53 µM): 0.403
- relative viability ([2]; first compound 8 µM): 0.285
- relative viability ([3]; first compound 0.08 µM): 0.876
- relative viability ([3]; first compound 0.8 µM): 0.861
- relative viability ([3]; first compound 2.53 µM): 0.678
- relative viability ([3]; first compound 8 µM): 0.646
- relative viability ([4]; first compound 0.08 µM): 1.03
- relative viability ([4]; first compound 0.8 µM): 1.04
- relative viability ([4]; first compound 2.53 µM): 1.16
- relative viability ([4]; first compound 8 µM): 1.19
- relative viability ([5]; first compound 0.08 µM): 0.389
- relative viability ([5]; first compound 0.8 µM): 0.432
- relative viability ([5]; first compound 2.53 µM): 0.481
- relative viability ([5]; first compound 8 µM): 0.357
- relative viability ([6]; first compound 0.08 µM): 0.307
- relative viability ([6]; first compound 0.8 µM): 0.325
- relative viability ([6]; first compound 2.53 µM): 0.366
- relative viability ([6]; first compound 8 µM): 0.286
- relative viability ([7]; first compound 0.08 µM): 0.661
- relative viability ([7]; first compound 0.8 µM): 0.786
- relative viability ([7]; first compound 2.53 µM): 0.517
- relative viability ([7]; first compound 8 µM): 0.659
- relative viability ([8]; first compound 0.08 µM): 0.583
- relative viability ([8]; first compound 0.8 µM): 0.704
- relative viability ([8]; first compound 2.53 µM): 0.743
- relative viability ([8]; first compound 8 µM): 0.556
- relative viability ([9]; first compound 0.08 µM): 0.425
- relative viability ([9]; first compound 0.8 µM): 0.39
- relative viability ([9]; first compound 2.53 µM): 0.315
- relative viability ([9]; first compound 8 µM): 0.294
- relative viability ([10]; first compound 0.08 µM): 0.518
- relative viability ([10]; first compound 0.8 µM): 0.612
- relative viability ([10]; first compound 2.53 µM): 0.576
- relative viability ([10]; first compound 8 µM): 0.478
- relative viability ([11]; first compound 0.08 µM): 0.482
- relative viability ([11]; first compound 0.8 µM): 0.549
- relative viability ([11]; first compound 2.53 µM): 0.365
- relative viability ([11]; first compound 8 µM): 0.403
- relative viability ([12]; first compound 0.08 µM): 0.49
- relative viability ([12]; first compound 0.8 µM): 0.573
- relative viability ([12]; first compound 2.53 µM): 0.43
- relative viability ([12]; first compound 8 µM): 0.479
- relative viability ([13]; first compound 0.08 µM): 0.346
- relative viability ([13]; first compound 0.8 µM): 0.386
- relative viability ([13]; first compound 2.53 µM): 0.418
- relative viability ([13]; first compound 8 µM): 0.361
- relative viability ([14]; first compound 0.08 µM): 0.669
- relative viability ([14]; first compound 0.8 µM): 0.804
- relative viability ([14]; first compound 2.53 µM): 1.16
- relative viability ([14]; first compound 8 µM): 0.717
- relative viability ([15]; first compound 0.08 µM): 0.393
- relative viability ([15]; first compound 0.8 µM): 0.334
- relative viability ([15]; first compound 2.53 µM): 0.357
- relative viability ([15]; first compound 8 µM): 0.281
- relative viability ([16]; first compound 0.08 µM): 0.852
- relative viability ([16]; first compound 0.8 µM): 1
- relative viability ([16]; first compound 2.53 µM): 1.11
- relative viability ([16]; first compound 8 µM): 0.667
- relative viability ([17]; first compound 0.08 µM): 0.299
- relative viability ([17]; first compound 0.8 µM): 0.37
- relative viability ([17]; first compound 2.53 µM): 0.281
- relative viability ([17]; first compound 8 µM): 0.333
- relative viability ([18]; first compound 0.08 µM): 0.319
- relative viability ([18]; first compound 0.8 µM): 0.427
- relative viability ([18]; first compound 2.53 µM): 0.334
- relative viability ([18]; first compound 8 µM): 0.276
- relative viability ([19]; first compound 0.08 µM): 0.359
- relative viability ([19]; first compound 0.8 µM): 0.526
- relative viability ([19]; first compound 2.53 µM): 0.355
- relative viability ([19]; first compound 8 µM): 0.51
- relative viability ([20]; first compound 0.08 µM): 0.51
- relative viability ([20]; first compound 0.8 µM): 0.573
- relative viability ([20]; first compound 2.53 µM): 0.475
- relative viability ([20]; first compound 8 µM): 0.479
- relative viability ([21]; first compound 0.08 µM): 0.501
- relative viability ([21]; first compound 0.8 µM): 0.601
- relative viability ([21]; first compound 2.53 µM): 0.4
- relative viability ([21]; first compound 8 µM): 0.273
- relative viability ([22]; first compound 0.08 µM): 0.555
- relative viability ([22]; first compound 0.8 µM): 0.59
- relative viability ([22]; first compound 2.53 µM): 0.439
- relative viability ([22]; first compound 8 µM): 0.323
- relative viability ([23]; first compound 0.08 µM): 0.343
- relative viability ([23]; first compound 0.8 µM): 0.332
- relative viability ([23]; first compound 2.53 µM): 0.288
- relative viability ([23]; first compound 8 µM): 0.288
- relative viability ([24]; first compound 0.08 µM): 0.647
- relative viability ([24]; first compound 0.8 µM): 0.605
- relative viability ([24]; first compound 2.53 µM): 0.755
- relative viability ([24]; first compound 8 µM): 0.616
